Assay results published in PubChem BioAssay (NCI).
“And” between values parts separate entries of the source, which are not always exact repeats. Identical values can stand only once.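 48-hour exposure; five concentrations; linearly interpolated endpoints. GI50 = concentration required for 50% inhibition of growth. TGI marks complete inhibition of growth.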

What was measured:
Assay in all cases: DTP human tumour cell line panel, 48 h
[1] = tested on: SK-MEL-28 melanoma
[2] = tested on: MDA-MB-231 breast
[3] = tested on: OVCAR-4 ovarian
[4] = tested on: OVCAR-5 ovarian
[5] = tested on: SR leukemia
[6] = tested on: SK-MEL-2 melanoma
[7] = tested on: NCI-H460 lung
[8] = tested on: SW-620 colon
[9] = tested on: HOP-92 NSCLC
[10] = tested on: IGROV1 ovarian
[11] = tested on: UACC-62 melanoma
[12] = tested on: SK-OV-3 ovarian
[13] = tested on: HL-60(TB) leukemia
[14] = tested on: M14 melanoma
[15] = tested on: A549 NSCLC
[16] = tested on: SNB-19 CNS
[17] = tested on: SNB-75 CNS
[18] = tested on: ACHN renal
[19] = tested on: NCI-H226 lung
[20] = tested on: HOP-62 NSCLC
[21] = tested on: OVCAR-3 ovarian
[22] = tested on: SF-268 CNS
[23] = tested on: CCRF-CEM leukemia
[24] = tested on: NCI-H23 lung
[25] = tested on: HCT-116 colon
[26] = tested on: K-562 leukemia
[27] = tested on: KM12 colon
[28] = tested on: HCT-15 colon
[29] = tested on: T-47D breast
[30] = tested on: TK-10 renal
[31] = tested on: PC-3 prostate
[32] = tested on: 786-0 renal
[33] = tested on: NCI-H522 lung
[34] = tested on: RPMI-8226 leukemia
[35] = tested on: MOLT-4 leukemia
[36] = tested on: A498 renal
[37] = tested on: MDA-MB-468 breast
[38] = tested on: CAKI-1 renal
[39] = tested on: BT-549 breast
[40] = tested on: EKVX NSCLC
[41] = tested on: HS 578T breast
[42] = tested on: UACC-257 melanoma
[43] = tested on: U251 CNS
[44] = tested on: SN12C renal
[45] = tested on: SK-MEL-5 melanoma
[46] = tested on: MALME-3M melanoma
[47] = tested on: MDA-MB-435
[48] = tested on: RXF 393 renal
[49] = tested on: OVCAR-8 ovarian
[50] = tested on: SF-539 CNS
[51] = tested on: HCC-2998 colon
[52] = tested on: MCF7 breast
[53] = tested on: COLO 205 colon
[54] = tested on: HT29 colon
[55] = tested on: DU-145 prostate
[56] = tested on: UO-31 renal
[57] = tested on: LOX IMVI melanoma
[58] = tested on: SF-295 CNS

Structure (SMILES): N#Cc1c(-c2ccc(Br)cc2)nc2n[nH]c(-c3ccc(Br)cc3)c2c1-c1ccc(C(F)(F)F)cc1
- GI50 [1]: 6.79 µM
- TGI [1]: 26.3 µM
- GI50 [2]: 5.37 µM
- TGI [2]: 19.3 µM
- GI50 [3]: 4.02 µM
- TGI [3]: 25.6 µM
- GI50 [4]: 7.58 µM
- TGI [4]: 26.9 µM
- GI50 [5]: 2.5 µM
- TGI [5]: 7.71 µM
- GI50 [6]: 10.1 µM
- TGI [6]: 23.6 µM
- GI50 [7]: 3.62 µM
- TGI [7]: 19.4 µM
- GI50 [8]: 4.39 µM
- TGI [8]: > 100 µM
- GI50 [9]: 1.65 µM
- TGI [9]: 4.73 µM
- GI50 [10]: 2.71 µM
- TGI [10]: 15.4 µM
- GI50 [11]: 2.61 µM
- TGI [11]: 13.3 µM
- GI50 [12]: 14.2 µM
- TGI [12]: 69.1 µM
- GI50 [13]: 2.03 µM
- TGI [13]: 6.13 µM
- GI50 [14]: 5.24 µM
- TGI [14]: 23.7 µM
- GI50 [15]: 4.62 µM
- TGI [15]: > 100 µM
- GI50 [16]: 4.53 µM
- TGI [16]: 33.3 µM
- GI50 [17]: 12.6 µM
- TGI [17]: 43.9 µM
- GI50 [18]: 3.26 µM
- TGI [18]: 14.3 µM
- GI50 [19]: 3.07 µM
- TGI [19]: 18 µM
- GI50 [20]: 14.1 µM
- TGI [20]: 44.7 µM
- GI50 [21]: 5.32 µM
- TGI [21]: 34.3 µM
- GI50 [22]: 7.91 µM
- TGI [22]: > 100 µM
- GI50 [23]: 3.05 µM
- TGI [23]: 13 µM
- GI50 [24]: 4.31 µM
- TGI [24]: > 100 µM
- GI50 [25]: 3.42 µM
- TGI [25]: 73.2 µM
- GI50 [26]: 2.61 µM
- TGI [26]: 10.3 µM
- GI50 [27]: 4.4 µM
- TGI [27]: 26.8 µM
- GI50 [28]: 3.29 µM
- TGI [28]: 19.1 µM
- GI50 [29]: 3.39 µM
- TGI [29]: 93.9 µM
- GI50 [30]: 19.7 µM
- TGI [30]: 58.3 µM
- GI50 [31]: 1.95 µM
- TGI [31]: 12.4 µM
- GI50 [32]: 7.85 µM
- TGI [32]: 28.1 µM
- GI50 [33]: 3.78 µM
- TGI [33]: 36.9 µM
- GI50 [34]: 2.35 µM
- TGI [34]: 10.4 µM
- GI50 [35]: 1.89 µM
- TGI [35]: 6.02 µM
- GI50 [36]: 15.1 µM
- TGI [36]: 45.2 µM
- GI50 [37]: 3.44 µM
- TGI [37]: 15.5 µM
- GI50 [38]: 4.01 µM
- TGI [38]: 24.2 µM
- GI50 [39]: 2.56 µM
- TGI [39]: 8.18 µM
- GI50 [40]: 3.05 µM
- TGI [40]: 27.3 µM
- GI50 [41]: 10.2 µM
- TGI [41]: 49.1 µM
- GI50 [42]: 13.3 µM
- TGI [42]: 62.6 µM
- GI50 [43]: 6.23 µM
- TGI [43]: 62.4 µM
- GI50 [44]: 3.3 µM
- TGI [44]: 15.8 µM
- GI50 [45]: 3.29 µM
- TGI [45]: 10.8 µM
- GI50 [46]: 2.34 µM
- TGI [46]: 6.47 µM
- GI50 [47]: 4.03 µM
- TGI [47]: 21.4 µM
- GI50 [48]: 6.93 µM
- TGI [48]: 28.4 µM
- GI50 [49]: 12.5 µM
- TGI [49]: > 100 µM
- GI50 [50]: 5.35 µM
- TGI [50]: 22.2 µM
- GI50 [51]: 5.27 µM
- TGI [51]: 27.1 µM
- GI50 [52]: 3.13 µM
- TGI [52]: 24 µM
- GI50 [53]: 3.88 µM
- TGI [53]: 15.9 µM
- GI50 [54]: 3.84 µM
- TGI [54]: 35.7 µM
- GI50 [55]: 5.45 µM
- TGI [55]: > 100 µM
- GI50 [56]: 2.07 µM
- TGI [56]: 14.9 µM
- GI50 [57]: 3.45 µM
- TGI [57]: > 100 µM
- GI50 [58]: 2.61 µM
- TGI [58]: 10.1 µM

Structure (SMILES): O=C(NCCc1ccccc1)C(c1csc2ccccc12)N(C(=O)CCl)c1ccc(-c2cnco2)cc1 (stereo not given)
- GI50 [37]: 0.812 µM
- TGI [37]: 2.6 µM

Structure (SMILES): O=C1/C(=C/c2ccc(F)cc2)CN(Cc2cn(CCNc3ccnc4cc(Cl)ccc34)nn2)C/C1=C\c1ccc(F)cc1
- GI50 [37]: 1.39 µM
- TGI [37]: 3.13 µM

Structure (SMILES): COc1cc(C2C3=C(COC3=O)N(CCO)c3cc4c(cc32)OCCO4)cc(OC)c1O (stereo not given)
- GI50 [37]: 1.01 µM
- TGI [37]: > 11.6 µM

Structure (SMILES): CN1CCN(c2nc(C3=C(c4c[nH]c5ccccc45)C(=O)NC3=O)c3ccccc3n2)CC1
- GI50 [37]: 13.4 µM and 15 µM
- TGI [37]: 43.6 µM and 30.4 µM

Structure (SMILES): C=CC[n+]1c(/C=C2\Sc3ccccc3N2C)sc(-c2ccccc2)c1-c1ccccc1
- GI50 [37]: 0.251 µM
- TGI [37]: 0.911 µM

Structure (SMILES): O=c1cc(N2CCOCC2)oc2c(-c3ccccc3)cccc12
- GI50 [37]: 2.85 µM
- TGI [37]: 18 µM

Structure (SMILES): N=C(N)c1ccc(-c2ccc(-c3ccco3)o2)cc1
- GI50 [37]: 1.39 µM
- TGI [37]: 3.79 µM

Structure (SMILES): CC(C)=CCNc1ncnc2c1ncn2C1OC(COP(=O)(O)O)C(O)C1O (stereo not given)
- GI50 [37]: 2.01 µM
- TGI [37]: 5.4 µM

Structure (SMILES): COc1cccc(-n2cnc3c(N/N=C/c4ccncc4)ncnc32)c1
- GI50 [37]: 6.4 µM
- TGI [37]: > 25 µM

Structure (SMILES): C=C1c2c(C)nn(-c3ccccc3)c2N(C)C23C[C@@H]1C1(C)c4c(C)nn(-c5ccccc5)c4N(C)C(C)(C[C@H]12)C3 (stereo not given in full)
- GI50 [37]: 2.9 µM
- TGI [37]: 27.9 µM

Structure (SMILES): CCCCCCCC(=O)SCC/C=C/[C@@H]1CC(=O)NCc2cccc(n2)CN(Cc2ccc(Cl)cc2)CC(=O)N[C@@H](C(C)C)C(=O)O1
- GI50 [37]: 13.8 µM
- TGI [37]: > 100 µM

Structure (SMILES): COc1ccc(C2CC(c3cccc(Nc4ccnc5cc(Cl)ccc45)c3)=NN2c2ccccc2)cc1 (stereo not given)
- GI50 [37]: 2.13 µM
- TGI [37]: 34.3 µM

Structure (SMILES): Oc1ccc(Br)cc1CN1CCN(Cc2ccc(Cl)cc2)CC1
- GI50 [37]: 5.1 µM
- TGI [37]: 55.8 µM

Structure (SMILES): CC(=O)c1c[nH]c2ccc(-c3ccnc(Nc4ccc(NC(=O)c5cccc(F)c5)c(CN5CCOCC5)c4)n3)cc12
- GI50 [37]: 0.172 µM
- TGI [37]: 0.582 µM

Structure (SMILES): O=C(CCCCCn1c2ccccc2c2c3c(c4c5ccccc5[nH]c4c21)C(=O)N(O)C3=O)N1CCOCC1
- GI50 [37]: 2.71 µM
- TGI [37]: 5.9 µM

Structure (SMILES): CCCCCc1c(C)[nH]c(/C=C2\N=C(c3ccc[nH]3)C=C2Oc2ccc(OC)cc2)c1C
- GI50 [37]: 0.0655 µM and 0.0271 µM
- TGI [37]: 2.04 µM and 0.288 µM

Structure (SMILES): COC(=O)c1ccc2c(c1)[n+](=O)c(C(C)=O)c(C(F)(F)F)n2[O-]
- GI50 [37]: 1.56 µM
- TGI [37]: 3.04 µM

Structure (SMILES): Cc1cc(C)c2nc(Nc3nc(C)c(C)c(=O)[nH]3)nc(C)c2c1
- GI50 [37]: 2.13 µM
- TGI [37]: 5.89 µM

Structure (SMILES): Nc1ncnc2c1ncn2C1OC(CO)C(O)C1O (stereo not given)
- GI50 [37]: 2.14 µM
- TGI [37]: 5.41 µM

Structure (SMILES): COc1ccc(/C(C#N)=C/c2nc3c(N4CCOCC4)nc(Cl)nc3n2C)cc1OC
- GI50 [37]: 0.0204 µM
- TGI [37]: 1.34 µM

Structure (SMILES): COc1cc(OC)cc(-c2n[nH]nc2-c2ccc3c(c2)OCO3)c1
- GI50 [37]: 0.226 µM
- TGI [37]: 25.8 µM

Structure (SMILES): CCSc1sc(-c2ccc(C)cc2)nc1[P+](c1ccccc1)(c1ccccc1)c1ccccc1
- GI50 [37]: 0.219 µM
- TGI [37]: 0.731 µM

Structure (SMILES): CC([C@H]1CCC2C3CCC4C(=O)C(NC=O)=CC[C@]4(C)C3CC[C@@]21C)N(C)C (stereo not given in full)
- GI50 [37]: 1.9 µM
- TGI [37]: 6.26 µM

Structure (SMILES): CN1CCN(c2nc(NCCNc3ccnc4cc(Cl)ccc34)c3ccccc3n2)CC1
- GI50 [37]: 1.46 µM
- TGI [37]: 4.64 µM

Structure (SMILES): COc1ccc(CNCCN2C(=O)c3ccc4c5c(ccc(c35)C2=O)C(=O)N(CCNCc2ccc(OC)cc2)C4=O)cc1
- GI50 [37]: 0.191 µM
- TGI [37]: 0.482 µM

Structure (SMILES): N#CC1=C(N)Oc2c(sc3c(F)cccc23)C1c1ccc(Cl)cc1 (stereo not given)
- GI50 [37]: 3.18 µM
- TGI [37]: 12.1 µM

Structure (SMILES): COc1cc(C2CC(c3ccc(C)cc3)=NN2C(C)=O)ccc1Oc1ccnc2cc(Cl)ccc12 (stereo not given)
- GI50 [37]: 20.7 µM
- TGI [37]: > 100 µM
